Experimental findings from paper PMC9127186, “Molecular Basis Underlying Hepatobiliary and Renal Excretion of Phenolic Acids of Salvia miltiorrhiza Roots (Danshen)” (Frontiers in Pharmacology, 2022) are described below.

In one data set the target is human MRP3 (Homo sapiens, UniProt O15438). As to the kind of experiment: Vesicular transport assay, inside-out membrane vesicles expressing human MRP3. As to conditions: 10 min. The method, then: (§1) Inside-out membrane vesicles (5 mg protein/mL), prepared from insect cells expressing human multidrug resistance-associated protein (MRP) 2, MRP3, MRP4, breast cancer resistance protein (BCRP), bile salt export pump (BSEP), and multidrug resistance protein (MDR) one and rat Mrp2, Mrp4, Bcrp, and Bsep, and vesicles (5 mg protein/mL; prepared from the insect cells expressing no ABC transporter; serving as negative control) were obtained from Genomembrane (Kanazawa, Japan).
Sequence of human MRP3 (O15438 whole entry): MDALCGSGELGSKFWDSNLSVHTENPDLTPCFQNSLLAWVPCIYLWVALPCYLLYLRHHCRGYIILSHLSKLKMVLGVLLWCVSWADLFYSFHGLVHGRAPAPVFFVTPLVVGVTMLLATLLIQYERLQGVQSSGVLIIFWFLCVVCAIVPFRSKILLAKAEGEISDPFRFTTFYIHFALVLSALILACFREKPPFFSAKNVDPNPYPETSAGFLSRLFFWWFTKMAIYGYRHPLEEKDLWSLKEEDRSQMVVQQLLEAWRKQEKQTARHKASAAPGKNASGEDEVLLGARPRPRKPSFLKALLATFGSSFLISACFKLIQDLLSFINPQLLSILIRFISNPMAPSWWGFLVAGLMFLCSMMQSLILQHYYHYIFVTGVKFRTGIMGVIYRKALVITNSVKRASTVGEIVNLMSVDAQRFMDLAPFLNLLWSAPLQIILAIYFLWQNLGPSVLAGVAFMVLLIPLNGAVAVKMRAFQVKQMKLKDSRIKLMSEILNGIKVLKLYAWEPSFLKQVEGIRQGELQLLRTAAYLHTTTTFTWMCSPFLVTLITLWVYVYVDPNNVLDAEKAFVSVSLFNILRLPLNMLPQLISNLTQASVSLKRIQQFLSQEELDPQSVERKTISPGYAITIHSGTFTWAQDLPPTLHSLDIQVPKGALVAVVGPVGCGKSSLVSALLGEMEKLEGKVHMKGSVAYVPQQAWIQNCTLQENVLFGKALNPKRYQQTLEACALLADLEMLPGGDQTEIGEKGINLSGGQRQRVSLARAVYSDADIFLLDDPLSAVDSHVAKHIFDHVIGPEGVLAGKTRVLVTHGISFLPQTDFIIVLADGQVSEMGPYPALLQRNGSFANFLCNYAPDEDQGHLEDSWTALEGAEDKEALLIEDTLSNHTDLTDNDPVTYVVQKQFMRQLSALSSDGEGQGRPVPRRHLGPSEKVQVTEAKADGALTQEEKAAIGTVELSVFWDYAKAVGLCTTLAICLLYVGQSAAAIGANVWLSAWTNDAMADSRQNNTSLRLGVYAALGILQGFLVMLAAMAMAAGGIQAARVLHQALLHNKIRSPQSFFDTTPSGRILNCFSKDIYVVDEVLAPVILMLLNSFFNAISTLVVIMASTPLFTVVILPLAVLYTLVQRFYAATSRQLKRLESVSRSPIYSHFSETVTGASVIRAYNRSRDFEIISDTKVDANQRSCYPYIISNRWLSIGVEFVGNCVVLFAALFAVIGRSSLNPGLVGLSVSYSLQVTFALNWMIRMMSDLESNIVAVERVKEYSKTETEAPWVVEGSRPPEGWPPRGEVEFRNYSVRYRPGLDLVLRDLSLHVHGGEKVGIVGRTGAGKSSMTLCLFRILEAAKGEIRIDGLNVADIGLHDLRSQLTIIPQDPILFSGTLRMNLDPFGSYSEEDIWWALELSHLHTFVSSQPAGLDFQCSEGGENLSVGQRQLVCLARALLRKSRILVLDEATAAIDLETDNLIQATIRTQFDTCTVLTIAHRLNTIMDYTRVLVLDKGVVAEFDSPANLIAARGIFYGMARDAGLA
(§2) The test Danshen compounds at 100 µM final concentration were separately incubated with the membrane vesicles for 10 min. Buffer C (50 mM MOPS-tris, 70 mM KCl, 7.5 mM MgCl2, pH 7.0) was used for preincubation and incubation, while buffer D (40 mM MOPS-tris, 70 mM KCl, pH 7.0) was used for vesicle washing. The transport rate (pmol/mg protein/min) of the test Danshen compound was calculated using Equation (2): Transport=(CV×VV)/T/WV (2) where C V, V V, T, and W V represent concentration of the compound in vesicular lysates supernatant (μM), volume of the lysates (μL), incubation time (10 min), and amount of vesicle protein amount per well (0.05 mg), respectively. Differential transport of the test Danshen compound between ATP-containing vesicles and AMP-containing vesicles was defined as net transport ratio (TransportATP/TransportAMP ratio). […] All the incubation samples were analyzed by liquid chromatography/mass spectrometry.

A further data set has as its target human MDR1 (Homo sapiens, UniProt P08183). As to the kind of experiment: Vesicular transport assay, inside-out membrane vesicles expressing human MDR1. The settings on record: 10 min. The method, then:
as §1, §2

In another data set the target is T1, rat Mrp4 (Rattus norvegicus, UniProt F1M3J4).
T1 sequence (F1M3J4 1-1325): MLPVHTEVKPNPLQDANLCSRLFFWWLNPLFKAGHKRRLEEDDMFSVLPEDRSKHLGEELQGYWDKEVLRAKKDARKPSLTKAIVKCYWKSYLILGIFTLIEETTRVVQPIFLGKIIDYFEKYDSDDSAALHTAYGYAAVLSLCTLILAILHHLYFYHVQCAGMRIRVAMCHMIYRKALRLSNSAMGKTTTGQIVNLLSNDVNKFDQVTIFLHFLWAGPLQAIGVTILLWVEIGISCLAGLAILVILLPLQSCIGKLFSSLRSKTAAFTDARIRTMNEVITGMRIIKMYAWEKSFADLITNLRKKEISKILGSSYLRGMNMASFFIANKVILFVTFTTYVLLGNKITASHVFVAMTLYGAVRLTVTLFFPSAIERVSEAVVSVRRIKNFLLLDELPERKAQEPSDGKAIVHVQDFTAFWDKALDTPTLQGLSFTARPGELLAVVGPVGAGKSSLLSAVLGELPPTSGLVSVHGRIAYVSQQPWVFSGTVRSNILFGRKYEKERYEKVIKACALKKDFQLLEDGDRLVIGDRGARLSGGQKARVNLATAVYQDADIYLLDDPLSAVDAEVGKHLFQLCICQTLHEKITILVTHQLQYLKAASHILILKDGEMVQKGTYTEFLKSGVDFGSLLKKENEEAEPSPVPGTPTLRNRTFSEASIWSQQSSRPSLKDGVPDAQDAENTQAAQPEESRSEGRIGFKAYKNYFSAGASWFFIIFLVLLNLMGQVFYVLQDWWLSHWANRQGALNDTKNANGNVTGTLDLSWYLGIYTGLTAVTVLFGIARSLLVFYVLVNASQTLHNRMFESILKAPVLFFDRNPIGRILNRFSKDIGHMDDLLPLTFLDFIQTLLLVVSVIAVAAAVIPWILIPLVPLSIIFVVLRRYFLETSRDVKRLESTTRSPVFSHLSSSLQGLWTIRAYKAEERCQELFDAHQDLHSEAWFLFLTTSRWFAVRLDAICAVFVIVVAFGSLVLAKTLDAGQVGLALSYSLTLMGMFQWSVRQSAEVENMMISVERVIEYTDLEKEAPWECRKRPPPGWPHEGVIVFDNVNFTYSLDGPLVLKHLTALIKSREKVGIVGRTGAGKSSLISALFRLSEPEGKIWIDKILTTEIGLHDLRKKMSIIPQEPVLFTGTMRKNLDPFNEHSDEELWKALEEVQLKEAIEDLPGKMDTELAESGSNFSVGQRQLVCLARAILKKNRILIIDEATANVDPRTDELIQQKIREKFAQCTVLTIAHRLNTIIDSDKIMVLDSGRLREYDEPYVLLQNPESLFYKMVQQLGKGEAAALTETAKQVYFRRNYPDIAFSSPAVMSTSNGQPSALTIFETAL
As to the kind of experiment: Vesicular transport assay, inside-out membrane vesicles expressing rat Mrp4. As to conditions: for TransportATP/TransportAMP ratio (net transport ratio): 10 min. The method, then: as §1, §2

The next data set has as its target T2, rat Oct1 (Rattus norvegicus, UniProt Q63089).
T2 sequence (Q63089 1-556): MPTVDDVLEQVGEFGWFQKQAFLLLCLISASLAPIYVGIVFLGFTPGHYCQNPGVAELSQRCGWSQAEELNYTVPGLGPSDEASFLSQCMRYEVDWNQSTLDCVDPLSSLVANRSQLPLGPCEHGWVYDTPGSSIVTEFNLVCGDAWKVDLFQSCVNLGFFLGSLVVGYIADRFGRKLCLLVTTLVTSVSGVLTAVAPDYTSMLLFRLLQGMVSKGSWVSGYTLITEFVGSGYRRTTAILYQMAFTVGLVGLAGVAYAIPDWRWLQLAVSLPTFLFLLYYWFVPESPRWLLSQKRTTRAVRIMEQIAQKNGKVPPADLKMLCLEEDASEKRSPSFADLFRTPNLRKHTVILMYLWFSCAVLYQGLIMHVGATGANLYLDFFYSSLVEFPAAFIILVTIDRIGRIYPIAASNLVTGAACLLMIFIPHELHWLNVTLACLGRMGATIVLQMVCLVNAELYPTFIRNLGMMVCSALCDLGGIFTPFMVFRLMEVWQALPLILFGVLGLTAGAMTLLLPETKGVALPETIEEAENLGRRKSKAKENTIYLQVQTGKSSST
In words: Cellular transport assay, HEK-293 cells expressing rat Oct1. The settings on record: Danshen phenolic acid at 100 μM final concentration, 10 min; rat Oct1-transfected vs mock cells.

Setting [1] is: Danshen phenolic acid at 100 μM final concentration, human MRP3 vesicles.
Setting [2] is: Danshen phenolic acid at 100 μM final concentration, human MDR1 vesicles.
Where [3] appears, read: Danshen phenolic acid at 100 μM final concentration, rat Mrp4 vesicles.

Sequence of human MDR1 (P08183 whole entry): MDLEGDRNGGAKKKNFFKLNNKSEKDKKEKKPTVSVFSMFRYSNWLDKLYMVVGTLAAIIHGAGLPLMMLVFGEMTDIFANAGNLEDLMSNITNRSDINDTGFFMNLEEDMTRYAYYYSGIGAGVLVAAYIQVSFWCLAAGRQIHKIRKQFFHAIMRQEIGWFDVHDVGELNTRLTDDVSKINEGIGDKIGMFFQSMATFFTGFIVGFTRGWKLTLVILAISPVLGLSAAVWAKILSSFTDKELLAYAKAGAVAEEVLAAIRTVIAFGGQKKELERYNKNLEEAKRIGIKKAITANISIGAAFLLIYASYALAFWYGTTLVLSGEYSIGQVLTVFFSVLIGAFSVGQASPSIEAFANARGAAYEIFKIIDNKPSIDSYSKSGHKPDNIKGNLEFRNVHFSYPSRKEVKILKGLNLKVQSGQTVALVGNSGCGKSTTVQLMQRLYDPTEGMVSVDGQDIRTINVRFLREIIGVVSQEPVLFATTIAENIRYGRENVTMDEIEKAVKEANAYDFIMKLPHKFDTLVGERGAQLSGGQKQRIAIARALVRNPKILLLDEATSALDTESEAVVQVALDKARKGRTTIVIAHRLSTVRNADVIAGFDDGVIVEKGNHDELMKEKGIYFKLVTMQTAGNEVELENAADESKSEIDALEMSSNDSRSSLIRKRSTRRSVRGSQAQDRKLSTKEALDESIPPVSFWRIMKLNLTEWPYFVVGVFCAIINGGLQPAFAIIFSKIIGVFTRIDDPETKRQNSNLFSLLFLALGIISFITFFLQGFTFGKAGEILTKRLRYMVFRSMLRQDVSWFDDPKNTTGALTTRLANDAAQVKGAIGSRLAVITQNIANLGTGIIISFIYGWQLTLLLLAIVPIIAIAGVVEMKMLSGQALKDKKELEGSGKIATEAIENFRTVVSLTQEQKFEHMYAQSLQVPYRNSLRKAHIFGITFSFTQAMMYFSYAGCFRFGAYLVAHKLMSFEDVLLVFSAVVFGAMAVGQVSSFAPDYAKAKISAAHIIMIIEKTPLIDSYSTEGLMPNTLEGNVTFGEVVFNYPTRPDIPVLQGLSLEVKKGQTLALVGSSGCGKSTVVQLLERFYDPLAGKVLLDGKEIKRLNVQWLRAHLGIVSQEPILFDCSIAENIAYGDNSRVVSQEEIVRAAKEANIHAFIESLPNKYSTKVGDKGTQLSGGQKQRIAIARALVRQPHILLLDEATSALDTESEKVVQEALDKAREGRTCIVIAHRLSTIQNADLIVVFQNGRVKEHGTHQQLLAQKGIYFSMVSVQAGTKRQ

Regarding `O=C(/C=C/c1ccc(O)c2c1[C@H](C(=O)O)[C@@H](c1ccc(O)c(O)c1)O2)O[C@H](Cc1ccc(O)c(O)c1)C(=O)O` [Lithospermic acid, lithospermic acid], the “TransportATP/TransportAMP ratio (net transport ratio)” value (“TransportATP/TransportAMP ratio” for short) at human MRP3 (setting [1]) is on record as 1.72 ± 0.28; at human MDR1 (setting [2]) it was 1.26 ± 0.09; at rat Mrp4 (setting [3]), 1.46 ± 0.01. Further, the “TransportTC/TransportMC ratio (net transport ratio)” value (shortened to “TransportTC/TransportMC ratio”) on rat Oct1 turned out to be 1.18 ± 0.06.

Turning to `O=C(O)c1ccc(O)c(O)c1` [Protocatechuic acid, protocatechuic acid], the “TransportATP/TransportAMP ratio” value amounted to 1.25 ± 0.08 at human MRP3 (setting [1]), 0.93 ± 0.04 on human MDR1 (setting [2]) and 1.17 ± 0.06 at rat Mrp4 (setting [3]). Besides, the “TransportTC/TransportMC ratio” value at rat Oct1 was 1.19 ± 0.41.

In the case of `O=C(/C=C/c1ccc(O)c(O)c1)O[C@H](Cc1ccc(O)c(O)c1)C(=O)O` [Rosmarinic acid, rosmarinic acid], the “TransportATP/TransportAMP ratio” value on human MRP3 (human, 100 μM, pH 7) stood at 1.38 ± 0.01; on human MDR1 (human, 100 μM, pH 7), 1.04 ± 0.18; on rat Mrp4 (rat, 100 μM, pH 7) it was 4.79 ± 0.38. Also, on rat Mrp4, the “substrate of rat Mrp4” value is recorded as “substrates”.

Consider `O=C(/C=C/c1ccc(O)c(O)c1/C=C/c1ccc(O)c(O)c1)O[C@H](Cc1ccc(O)c(O)c1)C(=O)O` [Salvianolic acid A, salvianolic acid A], for which the “TransportATP/TransportAMP ratio” value turned out to be 1.54 ± 0.23 at human MRP3 (human, 100 μM, pH 7); 1.26 ± 0.05 on human MDR1 (human, 100 μM, pH 7); 2.09 ± 0.25 on rat Mrp4 (rat, 100 μM, pH 7).

Take `O=C(O)Cc1c(/C=C/C(=O)O[C@H](Cc2ccc(O)c(O)c2)C(=O)O)ccc(O)c1O` [Salvianolic acid D, salvianolic acid D]: the “TransportATP/TransportAMP ratio” value is 1.35 ± 0.30 at human MRP3 (setting [1]), 0.92 ± 0.23 at human MDR1 (setting [2]) and 11.1 ± 0.2 on rat Mrp4 (setting [3]). Also, the “substrate of rat Mrp4” value on rat Mrp4 is “substrates”. The “TransportTC/TransportMC ratio” value on rat Oct1 came out at 1.23 ± 0.54.

Take salvianolic acid B: the “TransportATP/TransportAMP ratio” value is given as 1.47 ± 0.33 on human MRP3 (setting [1]), 1.66 ± 0.12 at human MDR1 (setting [2]) and 2.15 ± 0.32 on rat Mrp4 (setting [3]). Moreover, the “TransportTC/TransportMC ratio” value on rat Oct1 is recorded as 0.66 ± 0.17.
